Here are results for 2 molecules from patent EP1652531A1, “Use of GLP-1 or Analogues in Treatment of Stroke” (Eli Lilly & Company, priority 1998, dated 2006).

For one data set, the system named is STC-1 cells. The note with it: exposure of STC-1 cells (Abella et al., 1994); cited from earlier work.
Data set [1] has as its system patients having non-insulin dependent diabetes (NIDDM). As to the kind of experiment: Overnight continuous subcutaneous infusion, blood glucose in NIDDM patients (Example 1). The note with it: five NIDDM patients; subcutaneous infusion 1.2 pmol/kg/hr for ten hours during the night.
In another data set the test system is NIDDM patients. As to the kind of experiment: Infusion for three hours at each meal during the day, blood glucose in NIDDM patients (Example 2). The conditions noted are these: five NIDDM patients.

Consider “12-O-tetradecanoylphobol-13-acetate [TPA]”, for which the “release of GLP-1” value with STC-1 cells is listed as “significant increases”.

For the molecule `CC[C@H](C)[C@H](NC(=O)[C@H](Cc1ccccc1)NC(=O)[C@H](CCC(=O)O)NC(=O)[C@H](CCCCN)NC(=O)[C@H](C)NC(=O)[C@H](C)NC(=O)[C@H](CCC(N)=O)NC(=O)CNC(=O)[C@H](CCC(=O)O)NC(=O)[C@H](CC(C)C)NC(=O)[C@H](Cc1ccc(O)cc1)NC(=O)[C@H](CO)NC(=O)[C@H](CO)NC(=O)[C@@H](NC(=O)[C@H](CC(=O)O)NC(=O)[C@H](CO)NC(=O)[C@@H](NC(=O)[C@H](Cc1ccccc1)NC(=O)[C@@H](NC(=O)CNC(=O)[C@H](CCC(=O)O)NC(=O)[C@H](C)NC(=O)[C@@H](N)Cc1c[nH]cn1)[C@@H](C)O)[C@@H](C)O)C(C)C)C(=O)N[C@@H](C)C(=O)N[C@@H](Cc1c[nH]c2ccccc12)C(=O)N[C@@H](CC(C)C)C(=O)N[C@H](C(=O)N[C@@H](CCCCN)C(=O)NCC(=O)N[C@@H](CCCNC(=N)N)C(N)=O)C(C)C` [GLP-1(7-36) amide], the hypoglycemia result in data set [1] is “without inducing hypoglycemia in any of the patients”. Also, the untoward side effects result in the data set with NIDDM patients is given as “No untoward side effects”.
